Results on one compound are retold here after patent publication US20130225694A1, “COMPOSITIONS AND METHODS OF INHIBITING RETINAL DEGENERATION” (Oklahoma Medical Research Foundation, priority 2012, published 2013).

Molecules are shown by their SMILES.

One assay concerns the target T1, LRAT (Rattus norvegicus, UniProt Q9JI61).
T1 construct: from tissue; host or cells: rat eyecup/RPE microsomes
T1 sequence (Q9JI61 1-231): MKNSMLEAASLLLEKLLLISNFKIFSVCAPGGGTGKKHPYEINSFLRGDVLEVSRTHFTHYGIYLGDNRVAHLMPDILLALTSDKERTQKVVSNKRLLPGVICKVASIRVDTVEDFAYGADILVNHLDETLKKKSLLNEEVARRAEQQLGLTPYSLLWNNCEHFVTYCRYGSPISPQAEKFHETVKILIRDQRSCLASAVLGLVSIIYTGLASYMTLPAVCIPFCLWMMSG
The assay can be described thus: Retinyl ester production by LRAT in rat RPE microsomes. It is filed as biochemical. The following applies: 1 mM PBN. As to the method: Isomerohydrolase activity assay and PBN inhibition—Rats were sacrificed, and eyes were enucleated and dissected to remove the anterior part including lens, vitreous, and retina. The remaining eyecups containing RPE were sonicated 3 times for 20 seconds in a cold 0.32 M sucrose/0.1 M sodium phosphate buffer (pH 7.4). The homogenate was centrifuged (20 minutes, 20,000 g) to sediment sclera, unbroken cells, nuclei and mitochondria. The obtained supernatant was recentrifuged (1 hour, 100,000 g), and the microsomal pellet was resuspended in 10 mM 1,3-bis[tris(hydroxymethyl)-methylamino]propane (BTP), (pH 8.0) and 100 mM NaCl, and stored at −80° C. All-trans-[11,12-^3H]-retinol (1 mCi/ml, 45.5 Ci/mmol, American Radiolabeled Chemical, Inc., St. Louis, Mo.) in N,N-dimethyl formamide was used as the substrate for the isomerohydrolase assay. […] The upper layer was collected, and the generated retinoids were analyzed by normal phase HPLC as described (38). […] The isomerohydrolase activity was calculated from the area of the 11-cis-retinol peak using Radiomatic 610TR software (Perkin Elmer, Boston, Mass.) with synthetic 11-cis-[^3H]-retinol as a standard. […] The inhibition constant for PBN was calculated from the following equation: […] where [I]=concentration of PBN, Vm^i=maximal velocity in the presence of Vm=maximal velocity in the absence of PBN. […]

For the next assay, the target named is T2, chicken RPE65 (Gallus gallus, UniProt Q9YGX2).
T2 construct: made in house; host or cells: 293A cells infected with chicken RPE65 adenovirus; total lysate used
T2 sequence (Q9YGX2 1-533): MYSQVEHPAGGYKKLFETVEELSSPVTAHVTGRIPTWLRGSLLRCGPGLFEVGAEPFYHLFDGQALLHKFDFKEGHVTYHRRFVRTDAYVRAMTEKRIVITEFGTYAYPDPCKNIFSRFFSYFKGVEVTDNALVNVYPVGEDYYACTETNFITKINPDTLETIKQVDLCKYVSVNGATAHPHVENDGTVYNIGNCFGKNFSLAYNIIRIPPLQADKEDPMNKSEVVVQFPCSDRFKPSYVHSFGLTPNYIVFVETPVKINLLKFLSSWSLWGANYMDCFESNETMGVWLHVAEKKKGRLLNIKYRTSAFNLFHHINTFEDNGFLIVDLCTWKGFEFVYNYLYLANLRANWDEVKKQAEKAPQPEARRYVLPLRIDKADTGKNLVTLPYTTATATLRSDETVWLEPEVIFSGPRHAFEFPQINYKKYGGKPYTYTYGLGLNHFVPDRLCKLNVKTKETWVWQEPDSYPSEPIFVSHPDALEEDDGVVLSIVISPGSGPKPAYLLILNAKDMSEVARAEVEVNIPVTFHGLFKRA
Briefly: Liposome-based isomerohydrolase assay with recombinant chicken RPE65. It is filed as biochemical.

On to `CC(C)(C)/[N+]([O-])=C/c1ccccc1` [Compound 1, α-phenyl-N-tert-butyl nitrone], for which the “LRAT inhibition (production of retinyl ester)” value at LRAT is “not inhibited”. At chicken RPE65 (Lineweaver-Burk, with and without 0.1 mM PBN), the type of inhibition result was “uncompetitive inhibition”. The Ki – broadly, a measure of affinity in units of concentration, obtained from inhibition or displacement – at chicken RPE65 (all-trans-retinyl palmitate liposomes, 0.1 mM PBN, read-out: Ki (inhibition constant, uncompetitive formula)) worked out at 53 ± 7 µM.
